Laboratory results as given in patent US20150057253A1, “ALKYL DERIVATIVES AS SPHINGOSINE-1 PHOSPHATE RECEPTORS MODULATORS” (Allergan, Inc., priority 2013, published 2015).

biological target: T1, human S1P1 receptor (Homo sapiens, UniProt P21453); assay: GTP γ35S binding assay for S1P1 activity; type: biochemical; conditions: membranes of cells stably expressing the S1P1 receptor, test compounds 0.08 to 5,000 nM
T1 construct: expressed in transfected cells; membrane preparation
Procedure: Compounds were synthesized and tested for S1P1 activity using the GTP γ^35S binding assay. These compounds may be assessed for their ability to activate or block activation of the human S1P1 receptor in cells stably expressing the S1P1 receptor.
GTP γ^35S binding was measured in the medium containing (mM) HEPES 25, pH 7.4, MgCl2 10, NaCl 100, dithiothreitol 0.5, digitonin 0.003%, 0.2 nM GTP γ^35S, and 5 μg membrane protein in a volume of 150 μl. Test compounds were included in the concentration range from 0.08 to 5,000 nM unless indicated otherwise. Membranes were incubated with 100 μM 5′-adenylylimidodiphosphate for 30 min, and subsequently with 10 μM GDP for 10 min on ice. Drug solutions and membrane were mixed, and then reactions were initiated by adding GTP γ^35S and continued for 30 min at 25° C. Reaction mixtures were filtered over Whatman GF/B filters under vacuum, and washed three times with 3 mL of ice-cold buffer (HEPES 25, pH7.4, MgCl2 10 and NaCl 100). Filters were dried and mixed with scintillant, and counted for ^35S activity using a β-counter. Agonist-induced GTP γ^35S binding was obtained by subtracting that in the absence of agonist. Binding data were analyzed using a non-linear regression method. In case of antagonist assay, the reaction mixture contained 10 nM […] in the presence of test antagonist at concentrations ranging from 0.08 to 5000 nM.

T1 sequence (P21453 whole entry): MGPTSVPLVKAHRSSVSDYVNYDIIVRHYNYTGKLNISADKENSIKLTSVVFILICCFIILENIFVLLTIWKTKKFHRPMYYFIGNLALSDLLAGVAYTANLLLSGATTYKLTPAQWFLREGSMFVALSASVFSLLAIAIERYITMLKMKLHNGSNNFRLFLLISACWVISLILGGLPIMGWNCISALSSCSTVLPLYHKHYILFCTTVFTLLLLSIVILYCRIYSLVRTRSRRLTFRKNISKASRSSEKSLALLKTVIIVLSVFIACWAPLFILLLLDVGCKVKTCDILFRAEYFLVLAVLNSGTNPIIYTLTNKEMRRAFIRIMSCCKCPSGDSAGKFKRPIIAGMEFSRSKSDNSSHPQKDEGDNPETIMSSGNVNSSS

| SMILES | EC50 [nM] |
| --- | --- |
| Cc1ccc(CC(CCCc2ccc(CNCCC(=O)O)cc2)c2cccc(Cl)c2)cc1C (stereo not drawn) [3-({4-[4-(3-Chlorophenyl)-5-(3,4-dimethylphenyl)pentyl]benzyl}amino)propanoic acid] | 142 |
| Cc1ccc(CC(CCCCc2ccc(CNCCC(=O)O)cc2)c2cc(F)cc(F)c2)cc1C (stereo not drawn) [3-({4-[5-(3,5-Difluorophenyl)-6-(3,4)-dimethylphenyl)hexyl]benzyl}amino)propanoic acid] | 6.79 |
| Cc1ccc(CC(CCCCc2ccc(CNCCC(=O)O)cc2)c2cccc(Cl)c2)cc1C (stereo not drawn) [3-({4-[5-(3-Chlorophenyl)-6-(3,4-dimethylphenyl)hexyl]benzyl}amino)propanoic acid] | 20.1 |
| Cc1ccc(CC(CCCCc2ccc(CNCCCP(=O)(O)O)cc2)c2cc(F)cc(F)c2)cc1C (stereo not drawn) [[3-({4-[5-(3,5-Difluorophenyl)-6-(3,4-dimethylphenyl)hexyl]benzyl}amino)propyl]phosphonic acid] | 5.09 |

These reach a lower EC50. Values come first.

| EC50 [nM] | SMILES |
| --- | --- |
| 3.09 | Cc1ccc(CC(CCCc2ccc(CNCCCP(=O)(O)O)cc2)c2cccc(Cl)c2)cc1C (stereo not drawn) [[3-({4-[4-(3-Chlorophenyl)-5-(3,4-dimethylphenyl)pentyl]benzyl}amino)propyl]phosphonic acid] |
| 3.72 | Cc1ccc(CC(CCCCc2ccc(CNCCCP(=O)(O)O)cc2)c2cccc(Cl)c2)cc1C (stereo not drawn) [[3-({4-[5-(3-Chlorophenyl)-6-(3,4-dimethylphenyl)hexyl]benzyl}amino)propyl]phosphonic acid] |
